Source: the supplement of paper PMC10307832

Tests used:
Assay in all cases: relative viability (nuclei count vs DMSO), 5 days (fraction); higher = more cells survive
[1] = compound: C/C(=N\NC(=S)N1CCC1)/C2=CC=CC=N2 + CC(=O)Nc1cccc(-n2c(=O)n(C3CC3)c(=O)c3c(Nc4ccc(I)cc4F)n(C)c(=O)c(C)c32)c1 [Trametinib] (partner 0.02 µM)
Procedure, shortened: (§1)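 One day after seeding in 1536-well plates, lung cancer cell lines were dosed by pin tool. Dosing was either single-drug or a fixed anchor-drug dose plus five library-drug doses (not always all listed) in √10 steps. After 5 days, nuclei were stained in one fix-and-stain step and counted on 4× images, and relative viability is the nuclei count of treated wells over that of vehicle wells, given as the median of duplicate plates.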

[2] = compound: C/C(=N\NC(=S)N1CCC1)/C2=CC=CC=N2 + COc1cccc2cc(-c3nc([C@H]4CC[C@H](C(=O)O)CC4)n4ncnc(N)c34)[nH]c12 [OSI-027] (partner 0.5 µM)
Procedure, shortened: as §1

[3] = compound: C/C(=N\NC(=S)N1CCC1)/C2=CC=CC=N2 + N=C(N)NC(=N)NCCc1ccccc1 [Phenformin] (partner 250 µM)
Procedure, shortened: as §1

[4] = compound: C/C(=N\NC(=S)N1CCC1)/C2=CC=CC=N2 + C[C@@H](Oc1cc(-c2cnn(C3CCNCC3)c2)cnc1N)c1c(Cl)ccc(F)c1Cl [Crizotinib] (partner 1 µM)
Procedure, shortened: as §1

Cell Line | relative viability ([1]; first compound 0.05 µM) | relative viability ([1]; first compound 0.1581 µM) | relative viability ([1]; first compound 0.5 µM) | relative viability ([1]; first compound 1.581 µM) | relative viability ([1]; first compound 5 µM) | relative viability ([2]; first compound 0.05 µM) | relative viability ([2]; first compound 0.1581 µM) | relative viability ([2]; first compound 0.5 µM) | relative viability ([2]; first compound 1.581 µM) | relative viability ([2]; first compound 5 µM) | relative viability ([3]; first compound 0.05 µM) | relative viability ([3]; first compound 0.1581 µM) | relative viability ([3]; first compound 0.5 µM) | relative viability ([3]; first compound 1.581 µM) | relative viability ([3]; first compound 5 µM) | relative viability ([4]; first compound 0.05 µM) | relative viability ([4]; first compound 0.1581 µM) | relative viability ([4]; first compound 0.5 µM) | relative viability ([4]; first compound 1.581 µM) | relative viability ([4]; first compound 5 µM)
NCI-H1734 | 0.153 | 0.154 | 0.122 | 0.137 | 0.116 | 0.167 | 0.163 | 0.179 | 0.116 | 0.118 | 0.147 | 0.206 | 0.194 | 0.12 | 0.132 | 0.202 | 0.175 | 0.156 | 0.118 | 0.121
NCI-H1755 | 0.551 | 0.734 | 0.254 | 0.284 | 0.298 | 0.292 | 0.288 | 0.287 | 0.273 | 0.228 | 0.328 | 0.311 | 0.288 | 0.33 | 0.271 | 0.753 | 0.664 | 0.16 | 0.174 | 0.176
NCI-H1792 | 0.415 | 0.101 | 0.0783 | 0.0869 | 0.0954 | 0.417 | 0.301 | 0.25 | 0.248 | 0.205 | 0.122 | 0.096 | 0.108 | 0.063 | 0.0674 | 0.38 | 0.453 | 0.245 | 0.186 | 0.108
NCI-H1915 | 0.0702 | 0.0677 | 0.0851 | 0.0919 | 0.112 | 0.184 | 0.165 | 0.176 | 0.179 | 0.163 | 0.253 | 0.231 | 0.221 | 0.178 | 0.179 | 0.469 | 0.843 | 0.169 | 0.152 | 0.134
NCI-H1944 | 0.32 | 0.392 | 0.144 | 0.147 | 0.152 | 0.197 | 0.192 | 0.168 | 0.133 | 0.12 | 0.119 | 0.144 | 0.127 | 0.145 | 0.146 | 0.737 | 0.909 | 0.221 | 0.164 | 0.149
NCI-H1975 | 0.143 | 0.118 | 0.105 | 0.109 | 0.119 | 0.137 | 0.119 | 0.116 | 0.105 | 0.11 | 0.187 | 0.187 | 0.159 | 0.12 | 0.133 | 0.177 | 0.144 | 0.159 | 0.143 | 0.156
NCI-H1993 | 0.402 | 0.374 | 0.438 | 0.351 | 0.45 | 0.519 | 0.542 | 0.516 | 0.541 | 0.545 | 0.524 | 0.495 | 0.627 | 0.581 | 0.526 | 0.588 | 0.536 | 0.571 | 0.509 | 0.443
NCI-H2009 | 0.108 | 0.133 | 0.102 | 0.0932 | 0.111 | 0.0946 | 0.153 | 0.17 | 0.129 | 0.12 | 0.125 | 0.185 | 0.221 | 0.154 | 0.184 | 0.112 | 0.131 | 0.124 | 0.149 | 0.0903
NCI-H2023 | 0.0918 | 0.0896 | 0.0543 | 0.069 | 0.0829 | 0.0569 | 0.0687 | 0.0687 | 0.0508 | 0.0603 | 0.102 | 0.106 | 0.0921 | 0.0767 | 0.0997 | 0.1 | 0.0841 | 0.08 | 0.0545 | 0.0727
NCI-H2085 | 0.183 | 0.19 | 0.216 | 0.153 | 0.224 | 0.276 | 0.214 | 0.255 | 0.24 | 0.187 | 0.198 | 0.297 | 0.243 | 0.178 | 0.239 | 0.269 | 0.236 | 0.25 | 0.219 | 0.225
NCI-H2087 | 0.104 | 0.123 | 0.11 | 0.108 | 0.0815 | 0.132 | 0.14 | 0.143 | 0.122 | 0.0904 | 0.141 | 0.156 | 0.166 | 0.0953 | 0.0819 | 0.323 | 0.274 | 0.284 | 0.187 | 0.171
NCI-H2126 | 0.299 | 0.574 | 0.189 | 0.183 | 0.23 | 0.206 | 0.225 | 0.21 | 0.212 | 0.205 | 0.396 | 0.407 | 0.364 | 0.316 | 0.381 | 0.671 | 1.01 | 0.226 | 0.187 | 0.146
NCI-H2170 | 0.684 | 0.869 | 0.186 | 0.174 | 0.109 | 0.34 | 0.294 | 0.237 | 0.217 | 0.158 | 0.263 | 0.26 | 0.22 | 0.222 | 0.153 | 1.12 | 1.09 | 0.269 | 0.183 | 0.162
NCI-H2228 | 0.124 | 0.151 | 0.137 | 0.0911 | 0.135 | 0.116 | 0.152 | 0.207 | – | 0.0944 | 0.127 | 0.158 | 0.172 | – | 0.111 | 0.169 | 0.213 | 0.262 | 0.141 | 0.149
NCI-H2347 | 0.247 | 0.271 | 0.244 | 0.294 | 0.227 | 0.242 | 0.208 | 0.255 | 0.234 | 0.218 | 0.159 | 0.195 | 0.202 | 0.208 | 0.273 | 0.557 | 0.438 | 0.322 | 0.233 | 0.302
NCI-H2405 | 0.236 | 0.278 | 0.24 | 0.239 | 0.3 | 0.26 | 0.238 | 0.229 | 0.226 | 0.24 | 0.21 | 0.235 | 0.24 | 0.199 | 0.262 | 0.26 | 0.29 | 0.307 | 0.25 | 0.258
NCI-H3122 | 0.0866 | 0.159 | 0.0947 | 0.116 | 0.125 | 0.138 | 0.0988 | 0.132 | 0.134 | 0.129 | 0.0982 | 0.0876 | 0.119 | 0.128 | 0.124 | 0.151 | 0.171 | 0.185 | 0.171 | 0.176
